{
  "source": "patent US7598245B2",
  "about": "(Vertex Pharmaceuticals Incorporated, priority 2003, dated 2009)",
  "assay_type_in_all_cases": "biochemical",
  "key": {"human Src kinase": {"biological_target": "T1, human Src kinase (Homo sapiens, UniProt P12931)", "T1 construct": "25 nM of recombinant human Src kinase", "T1 sequence (P12931 whole entry)": "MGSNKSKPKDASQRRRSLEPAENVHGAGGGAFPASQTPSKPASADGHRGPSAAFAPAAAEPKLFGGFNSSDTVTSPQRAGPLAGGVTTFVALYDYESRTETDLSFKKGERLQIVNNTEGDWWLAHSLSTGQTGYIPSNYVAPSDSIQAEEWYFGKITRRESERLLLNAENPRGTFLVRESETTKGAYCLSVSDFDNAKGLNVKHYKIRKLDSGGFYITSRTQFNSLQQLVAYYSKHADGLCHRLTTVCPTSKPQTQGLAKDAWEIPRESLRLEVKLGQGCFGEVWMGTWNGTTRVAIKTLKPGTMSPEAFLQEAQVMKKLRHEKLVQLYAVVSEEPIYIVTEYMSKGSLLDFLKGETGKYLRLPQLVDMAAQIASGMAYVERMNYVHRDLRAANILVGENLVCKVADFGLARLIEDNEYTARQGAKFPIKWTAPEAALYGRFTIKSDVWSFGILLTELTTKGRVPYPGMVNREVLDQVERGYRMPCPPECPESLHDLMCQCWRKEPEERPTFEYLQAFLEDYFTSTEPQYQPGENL", "assay": "Src inhibition assay B: spectrophotometric (uv-vis) coupled enzyme assay", "settings": "100 μM ATP", "method": "The compounds are evaluated as inhibitors of human Src kinase using either a radioactivity-based assay or spectrophotometric assay.\nSrc Inhibition Assay B: Spectrophotometric Assay\nThe ADP produced from ATP by the human recombinant Src kinase-catalyzed phosphorylation of poly Glu-Tyr substrate is quantified using a coupled enzyme assay [Fox et al. Protein Sci. 1998, 7, 2249]. In this assay one molecule of NADH is oxidised to NAD for every molecule of ADP produced in the kinase reaction. The disappearance of NADH is conveniently followed at 340 nm.\nThe following are the final concentrations of the assay components: 0.025 M HEPES (pH 7.6), 10 mM MgCl2, 2 mM DTT, 0.25 mg/ml poly Glu-Tyr, and 25 nM of recombinant human Src kinase. Final concentrations of the components of the coupled enzyme system are 2.5 mM phosphoenolpyruvate, 200 μM NADH, 30 μg/ml pyruvate kinase and 10 μg/ml lactate dehydrogenase.\nIn a typical assay, all the reaction components with the exception of ATP are pre-mixed and aliquoted into assay plate wells. Inhibitors dissolved in DMSO are added to the wells to give a final DMSO concentration of 2.5%. The assay plate is incubated at 30° C. for 10 min before initiating the reaction with 100 μM ATP. The absorbance change at 340 nm with time, the rate of the reaction, is monitored on a molecular devices plate reader. The data of rate as a function of the inhibitor concentration is fitted to competitive inhibition kinetics model to get the Ki for the compound."}, "JAK-3": {"biological_target": "T2, JAK-3 (Homo sapiens, UniProt P52333)", "T2 sequence (P52333 1-1124)": "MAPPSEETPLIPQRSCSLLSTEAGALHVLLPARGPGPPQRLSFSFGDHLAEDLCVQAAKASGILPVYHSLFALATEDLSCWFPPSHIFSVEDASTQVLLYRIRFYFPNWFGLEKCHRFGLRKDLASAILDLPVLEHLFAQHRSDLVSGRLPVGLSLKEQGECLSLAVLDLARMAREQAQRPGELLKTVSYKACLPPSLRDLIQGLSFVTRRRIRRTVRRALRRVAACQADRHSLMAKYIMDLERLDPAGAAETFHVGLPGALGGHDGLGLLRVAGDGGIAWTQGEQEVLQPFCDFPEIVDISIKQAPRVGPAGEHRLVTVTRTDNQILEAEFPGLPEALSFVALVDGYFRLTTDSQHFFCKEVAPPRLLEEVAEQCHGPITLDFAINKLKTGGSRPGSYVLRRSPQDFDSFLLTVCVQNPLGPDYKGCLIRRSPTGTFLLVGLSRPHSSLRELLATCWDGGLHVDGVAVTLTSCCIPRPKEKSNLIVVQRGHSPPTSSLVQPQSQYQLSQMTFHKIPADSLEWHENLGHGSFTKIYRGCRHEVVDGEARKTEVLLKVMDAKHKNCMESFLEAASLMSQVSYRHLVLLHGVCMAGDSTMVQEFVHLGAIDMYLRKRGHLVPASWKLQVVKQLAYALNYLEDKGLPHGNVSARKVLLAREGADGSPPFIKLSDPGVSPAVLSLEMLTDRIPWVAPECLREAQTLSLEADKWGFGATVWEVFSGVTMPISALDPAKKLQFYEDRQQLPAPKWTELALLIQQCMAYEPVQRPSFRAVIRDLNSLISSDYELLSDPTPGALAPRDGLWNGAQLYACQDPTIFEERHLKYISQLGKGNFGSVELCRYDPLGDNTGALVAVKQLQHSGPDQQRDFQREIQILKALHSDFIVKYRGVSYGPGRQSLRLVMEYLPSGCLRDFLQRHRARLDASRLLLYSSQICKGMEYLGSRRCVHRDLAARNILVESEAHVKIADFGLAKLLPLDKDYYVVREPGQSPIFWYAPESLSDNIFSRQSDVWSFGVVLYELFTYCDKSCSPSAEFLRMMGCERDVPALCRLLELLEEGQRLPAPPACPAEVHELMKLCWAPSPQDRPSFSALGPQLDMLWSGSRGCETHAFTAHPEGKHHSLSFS", "assay": "JAK3 inhibition assay (ELISA, Poly (Glu, Ala, Tyr) coated plates)", "settings": "2 μM ATP", "method": "Compound inhibition of JAK was assayed by the method described by G. R. Brown, et al, Bioorg. Med. Chem. Lett. 2000, vol. 10, pp 575-579 in the following manner. Into Maxisorb plates, previously coated at 4° C. with Poly (Glu, Ala, Tyr) 6:3:1 then washed with phosphate buffered saline 0.05% and Tween-(PBST), was added 2 μM ATP, 5 mM MgCl2, and a solution of compound in DMSO. The reaction was started with JAK enzyme and the plates incubated for 60 minutes at 30° C. The plates were then washed with PBST, 100 μL HRP-Conjugated 4G10 antibody was added, and the plate incubated for 90 minutes at 30° C. The plate was again washed with PBST, 100 μL TMB solution is added, and the plates were incubated for another 30 minutes at 30° C. Sulfuric acid (100 μL of 1M) was added to stop the reaction and the plate is read at 450 nm to obtain the optical densities for analysis to determine Ki values."}, "PDK-1": {"biological_target": "T3, PDK-1 (Homo sapiens, UniProt O15530)", "T3 sequence (O15530 1-556)": "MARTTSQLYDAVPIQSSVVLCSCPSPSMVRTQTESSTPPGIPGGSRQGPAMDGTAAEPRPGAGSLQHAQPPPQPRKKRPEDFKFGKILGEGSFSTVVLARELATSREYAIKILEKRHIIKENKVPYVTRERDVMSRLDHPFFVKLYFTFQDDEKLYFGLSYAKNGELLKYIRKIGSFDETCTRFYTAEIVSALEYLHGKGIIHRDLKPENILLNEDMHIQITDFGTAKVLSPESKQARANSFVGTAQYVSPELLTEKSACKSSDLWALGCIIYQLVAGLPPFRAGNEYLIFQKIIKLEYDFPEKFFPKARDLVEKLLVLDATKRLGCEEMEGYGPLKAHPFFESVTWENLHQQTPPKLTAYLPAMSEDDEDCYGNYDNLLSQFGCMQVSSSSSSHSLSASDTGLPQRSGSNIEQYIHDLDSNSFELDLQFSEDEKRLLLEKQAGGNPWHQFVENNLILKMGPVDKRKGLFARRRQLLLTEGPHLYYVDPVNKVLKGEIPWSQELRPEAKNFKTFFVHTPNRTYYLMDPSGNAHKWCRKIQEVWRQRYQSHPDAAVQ", "assay": "PDK-1 inhibition, radioactive-phosphate incorporation assay", "settings": "40 μM ATP", "method": "Compounds were screened for their ability to inhibit PDK-1 using a radioactive-phosphate incorporation assay (Pitt and Lee, J. Biomol. Screen., (1996) 1, 47). Assays were carried out in a mixture of 100 mM HEPES (pH 7.5), 10 mM MgCl2, 25 mM NaCl, 2 mM DTT. Final substrate concentrations in the assay were 40 μM ATP (Sigma Chemicals) and 65 μM peptide (PDKtide, Upstate, Lake Placid, N.Y.). Assays were carried out at 30° C. and 25 nM PDK-1 in the presence of ˜27.5 nCi/μL of [γ-^32P]ATP (Amersham Pharmacia Biotech, Amersham, UK). An assay stock buffer solution was prepared containing all of the reagents listed above, with the exception of ATP, and the test compound of interest. 15 μl of the stock solution was placed in a 96 well plate followed by addition of 1 μl of 0.5 mM DMSO stock containing the test compound (final compound concentration 25 μM, final DMSO concentration […]). The plate was preincubated for about 10 minutes at 30° C. and the reaction initiated by addition of 4 μl ATP (final concentration 40 μM).\nThe reaction was stopped after 10 minutes by the addition of 100 μL 100 mM phosphoric acid, 0.01% Tween-20. A phosphocellulose 96 well plate (Millipore, Cat no. MAPHNOB50) was pretreated with 100 μL 100 mM phosphoric acid, 0.01% Tween-20 prior to the addition of the reaction mixture (100 μL). The spots were left to soak for at least 5 minutes, prior to wash steps (4×200 μL 100 mM phosphoric acid, 0.01% Tween-20). After drying, 20 μL Optiphase ‘SuperMix’ liquid scintillation cocktail (Perkin Elmer) was added to the well prior to scintillation counting (1450 Microbeta Liquid Scintillation Counter, Wallac)."}, "Aurora-2": {"biological_target": "T4, Aurora-2 (Homo sapiens, UniProt O14965)", "T4 construct": "addition of 10 μL of Aurora-2 stock solution to give a final concentration of 70 nM", "T4 sequence (O14965 1-403)": "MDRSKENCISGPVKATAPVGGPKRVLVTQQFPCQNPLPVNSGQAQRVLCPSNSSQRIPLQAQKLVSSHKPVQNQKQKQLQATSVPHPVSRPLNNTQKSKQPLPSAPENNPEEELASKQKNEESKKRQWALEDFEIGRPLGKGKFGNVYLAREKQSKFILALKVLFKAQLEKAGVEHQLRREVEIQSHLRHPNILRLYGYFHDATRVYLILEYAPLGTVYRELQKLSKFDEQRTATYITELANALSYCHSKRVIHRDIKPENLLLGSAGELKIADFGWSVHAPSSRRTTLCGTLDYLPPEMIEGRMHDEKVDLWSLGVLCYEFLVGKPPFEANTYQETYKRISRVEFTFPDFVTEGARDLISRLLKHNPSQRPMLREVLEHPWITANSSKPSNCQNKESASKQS", "assay": "Inhibition of AUR-2, coupled enzyme assay", "method": "Compounds are screened in the following manner for their ability to inhibit Aurora-2 using a standard coupled enzyme assay (Fox et al (1998) Protein Sci 7, 2249). To an assay stock buffer solution containing 0.1M HEPES 7.5, 10 mM MgCl2, 1 mM DTT, 25 mM NaCl, 2.5 mM phosphoenolpyruvate, […], 30 mg/ml pyruvate kinase, 10 mg/ml lactate dehydrogenase, 40 mM ATP, and 800 μM peptide (LRRASLG, American Peptide, Sunnyvale, Calif.) is added a DMSO solution of a compound of the present invention to a final concentration of 30 μM. The resulting mixture is incubated at 30° C. for 10 min. The reaction was initiated by the addition of 10 μL of Aurora-2 stock solution to give a final concentration of 70 nM in the assay. The rates of reaction are obtained by monitoring absorbance at 340 nm over a 5 minute read time at 30° C. using a BioRad Ultramark plate reader (Hercules, Calif.). The Ki values are determined from the rate data as a function of inhibitor concentration."}},
  "data": [
    {"compound": "CN(c1cc(-n2cnc(Nc3ccccc3)n2)ccn1)C1CCCCC1", "note": "[Compound I-133]", "values": [
      {"measurement": "Ki", "setting": "human Src kinase", "value": "> 1000", "unit": "nM"},
      {"measurement": "Ki", "setting": "JAK-3", "value": "> 1000", "unit": "nM"}
    ]},
    {"compound": "CC1CCCCN1c1cc(-n2cnc(Nc3ccccc3)n2)ccn1", "note": "(centres unmarked) [Compound I-126, [1-(2-methyl-3,4,5,6-tetrahydro-2H-[1,2′]bipyridinyl-4′-yl)-1H-[1,2,4]triazol-3-yl]-phenyl-amine]", "values": [
      {"measurement": "Ki", "setting": "human Src kinase", "value": "> 1000", "unit": "nM"}
    ]},
    {"compound": "NS(=O)(=O)c1ccc(Nc2ncn(-c3ccnc(N[C@H]4CCCNC4)c3)n2)cc1", "note": "[Compound I-104, 3-(S)-{4-[3-(4-Sulfamoyl-phenylamino)-[1,2,4]triazol-1-yl]-pyridin-2-ylamino}-piperidine]", "values": [
      {"measurement": "Ki", "setting": "PDK-1", "value": "< 1000", "unit": "nM"}
    ]},
    {"compound": "c1ccc(Nc2ncn(-c3cc(N[C@H]4CCCNC4)ncn3)n2)cc1", "note": "[Compound I-103, [6-(3-Phenylamino-[1,2,4]triazol-1-yl)-pyrimidin-4-yl]-piperidin-3-yl-amine]", "values": [
      {"measurement": "Ki", "setting": "human Src kinase", "value": "< 500", "unit": "nM"},
      {"measurement": "Ki", "setting": "PDK-1", "value": "< 1000", "unit": "nM"},
      {"measurement": "Ki", "setting": "Aurora-2", "value": "100 to 1000", "unit": "nM"}
    ]},
    {"compound": "CCCN(CC1CC1)c1cc(-n2cnc(Nc3ccccc3)n2)ccn1", "note": "[Compound I-125, cyclopropylmethyl-[4-(3-phenylamino-[1,2,4]triazol-1-yl)-pyridin-2-yl]-propyl-amine]", "values": [
      {"measurement": "Ki", "setting": "human Src kinase", "value": "> 1000", "unit": "nM"}
    ]}
  ]
}
